Reference: ChEMBL document CHEMBL1147420, “Synthesis and biological evaluation of novel coumarin derivatives with a 7-azomethine linkage” (2004)

Experiments:
Type in all cases: functional
[1] = molecular target: Serine protease 1 (Homo sapiens) (UniProt P07477); experiment: Compound was evaluated for in vitro inhibition of trypsin acting as esterase at 1 mM concentration
[2] = molecular target: Serine protease 1 (Homo sapiens) (UniProt P07477); experiment: Compound was evaluated for in vitro inhibition of trypsin induced proteolysis at 1 mM concentration
[3] = Interaction percent with DPPH after 60 minutes was determined at 0.5 mM concentration
[4] = Interaction percent with DPPH after 20 minutes was determined at 0.1 mM concentration
[5] = molecular target: T1, Seed linoleate 13S-lipoxygenase-1 (Glycine max) (UniProt P08170); experiment: Compound was evaluated for in vitro inhibition of soybean lipoxygenase at 0.1 mM concentration
T1 sequence (whole entry): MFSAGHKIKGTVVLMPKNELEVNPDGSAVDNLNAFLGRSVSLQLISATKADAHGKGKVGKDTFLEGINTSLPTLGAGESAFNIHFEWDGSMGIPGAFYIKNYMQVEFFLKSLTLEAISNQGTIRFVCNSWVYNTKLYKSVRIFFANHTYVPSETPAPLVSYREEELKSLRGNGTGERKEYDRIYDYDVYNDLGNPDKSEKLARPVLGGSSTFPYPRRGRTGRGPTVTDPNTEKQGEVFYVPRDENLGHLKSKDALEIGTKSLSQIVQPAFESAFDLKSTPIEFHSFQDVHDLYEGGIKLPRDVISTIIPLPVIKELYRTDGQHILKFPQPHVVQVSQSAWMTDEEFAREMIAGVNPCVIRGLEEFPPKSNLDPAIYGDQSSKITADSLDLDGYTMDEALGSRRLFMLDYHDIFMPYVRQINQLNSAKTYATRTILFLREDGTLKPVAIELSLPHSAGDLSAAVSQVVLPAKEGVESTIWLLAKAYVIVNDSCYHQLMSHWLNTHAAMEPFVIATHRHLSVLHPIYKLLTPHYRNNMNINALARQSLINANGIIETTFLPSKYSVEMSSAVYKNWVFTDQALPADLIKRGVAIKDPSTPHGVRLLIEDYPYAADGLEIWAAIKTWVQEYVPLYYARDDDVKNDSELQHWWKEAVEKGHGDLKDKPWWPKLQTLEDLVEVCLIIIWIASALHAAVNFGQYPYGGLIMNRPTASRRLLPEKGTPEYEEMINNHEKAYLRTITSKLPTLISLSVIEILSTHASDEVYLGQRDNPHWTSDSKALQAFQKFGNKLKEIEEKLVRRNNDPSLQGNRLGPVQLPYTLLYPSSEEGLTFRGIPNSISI

[6] = molecular target: T2, Beta-glucuronidase (Bos taurus) (UniProt A3KMY8); experiment: Compound was evaluated for in vitro inhibition of beta-glucuronidase at 1 mM concentration
T2 sequence (whole entry): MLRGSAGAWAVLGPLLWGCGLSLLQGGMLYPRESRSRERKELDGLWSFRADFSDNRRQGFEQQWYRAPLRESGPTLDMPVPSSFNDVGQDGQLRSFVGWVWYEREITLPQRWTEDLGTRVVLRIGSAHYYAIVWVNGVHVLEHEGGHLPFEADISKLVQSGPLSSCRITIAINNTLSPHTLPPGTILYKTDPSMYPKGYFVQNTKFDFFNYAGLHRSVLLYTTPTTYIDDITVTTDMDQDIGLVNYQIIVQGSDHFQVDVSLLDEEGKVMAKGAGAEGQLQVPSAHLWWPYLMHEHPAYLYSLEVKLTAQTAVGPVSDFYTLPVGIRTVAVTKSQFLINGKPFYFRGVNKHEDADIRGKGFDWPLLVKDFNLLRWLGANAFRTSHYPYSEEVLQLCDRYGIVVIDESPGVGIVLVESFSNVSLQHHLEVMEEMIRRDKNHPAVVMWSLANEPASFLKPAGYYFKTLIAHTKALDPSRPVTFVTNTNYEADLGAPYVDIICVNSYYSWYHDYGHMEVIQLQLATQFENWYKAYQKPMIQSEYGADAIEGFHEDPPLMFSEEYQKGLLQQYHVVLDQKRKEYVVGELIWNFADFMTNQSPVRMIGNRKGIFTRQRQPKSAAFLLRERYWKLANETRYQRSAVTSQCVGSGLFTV

[7] = molecular target: Serine protease 1 (Homo sapiens) (UniProt P07477); experiment: Compound was evaluated for in vitro inhibition of trypsin induced proteolysis at 0.1 mM concentration
[8] = molecular target: Chymotrypsinogen B (Homo sapiens) (UniProt P17538); experiment: Compound was evaluated for in vitro inhibition of chymotrypsinogen acting as esterase at 1 mM concentration
[9] = molecular target: Chymotrypsinogen B (Homo sapiens) (UniProt P17538); experiment: Compound was evaluated for in vitro inhibition of chymotrypsinogen acting as esterase at 0.1 mM concentration
[10] = Competition percent of compound with DMSO for hydroxyl radical was determined at 0.1 mM concentration
[11] = molecular target: T2, Beta-glucuronidase (Bos taurus); experiment: Compound was evaluated for in vitro inhibition of beta-glucuronidase at 0.1 mM concentration; […]
[12] = Interaction percent with DPPH after 60 minutes was determined at 0.2 mM concentration
[13] = molecular target: T1, Seed linoleate 13S-lipoxygenase-1 (Glycine max); experiment: Compound was evaluated for in vitro inhibition of soybean lipoxygenase at 1 mM concentration
[14] = molecular target: Chymotrypsinogen B (Homo sapiens) (UniProt P17538); experiment: Compound was evaluated for in vitro inhibition of chymotrypsinogen induced proteolysis at 0.1 mM concentration
[15] = Interaction percent with DPPH after 20 minutes was determined at 0.5 mM concentration
[16] = Competition percent of compound with DMSO for hydroxyl radical was determined at 0.01 mM concentration
[17] = Compound was evaluated for percent inhibition of carrageenan induced rat paw edema at 0.005 mmol/kg
[18] = molecular target: Serine protease 1 (Homo sapiens) (UniProt P07477); experiment: Compound was evaluated for in vitro inhibition of trypsin acting as esterase at 0.1 mM concentration
[19] = molecular target: Chymotrypsinogen B (Homo sapiens) (UniProt P17538); experiment: Compound was evaluated for in vitro inhibition of chymotrypsinogen induced proteolysis at 1 mM concentration
[20] = Interaction percent with DPPH after 60 minutes was determined at 0.1 mM concentration
[21] = Interaction percent with DPPH after 20 minutes was determined at 0.2 mM concentration
[22] = molecular target: T2, Beta-glucuronidase (Bos taurus); experiment: Compound was evaluated for in vitro inhibition of beta-glucuronidase at 0.1 mM concentration
[23] = molecular target: Chymotrypsinogen B (Homo sapiens) (UniProt P17538); experiment: Compound was evaluated for in vitro inhibition of chymotrypsinogen induced proteolysis at 0.1 mM concentration; no action
[24] = molecular target: Serine protease 1 (Homo sapiens) (UniProt P07477); experiment: Compound was evaluated for in vitro inhibition of trypsin induced proteolysis at 0.1 mM concentration; no action
[25] = Competition percent of compound with DMSO for hydroxyl radical was determined at 0.1 mM concentration; No result
[26] = molecular target: T1, Seed linoleate 13S-lipoxygenase-1 (Glycine max); experiment: Compound was evaluated for in vitro inhibition of soybean lipoxygenase at 0.1 mM concentration; no action

Chymotrypsinogen B (Homo sapiens), sequence (P17538 34-164 limits assumed, other chains not shown): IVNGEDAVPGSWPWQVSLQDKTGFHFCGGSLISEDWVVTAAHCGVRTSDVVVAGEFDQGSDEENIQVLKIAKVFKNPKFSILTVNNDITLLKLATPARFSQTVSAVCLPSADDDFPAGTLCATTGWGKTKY
Chymotrypsinogen B (Homo sapiens), sequence (P17538 167-263 limits assumed, other chains not shown): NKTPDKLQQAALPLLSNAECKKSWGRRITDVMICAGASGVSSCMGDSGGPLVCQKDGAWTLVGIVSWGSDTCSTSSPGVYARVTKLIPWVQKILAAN
Serine protease 1 (Homo sapiens), sequence (P07477 whole entry): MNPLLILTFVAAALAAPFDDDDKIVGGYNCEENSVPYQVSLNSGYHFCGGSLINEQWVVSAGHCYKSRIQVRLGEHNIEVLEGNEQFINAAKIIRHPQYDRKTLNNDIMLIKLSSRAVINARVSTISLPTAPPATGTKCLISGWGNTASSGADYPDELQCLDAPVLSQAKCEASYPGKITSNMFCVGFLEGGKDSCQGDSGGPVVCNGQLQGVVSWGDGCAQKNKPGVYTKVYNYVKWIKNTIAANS

| Compound | inhibition [1] [%] | inhibition [2] [%] | RA [3] [%] | RA [4] [%] | inhibition [5] [%] | inhibition [6] [%] | inhibition [7] [%] | inhibition [8] [%] | inhibition [9] [%] | Competition [10] [%] | RA [12] [%] | inhibition [13] [%] | inhibition [14] | RA [15] [%] | Competition [16] [%] | inhibition in vivo at 5 µmol/kg [17] [%] | inhibition [18] [%] | inhibition [19] [%] | RA [20] [%] | RA [21] [%] | also measured |
| --- | --- | --- | --- | --- | --- | --- | --- | --- | --- | --- | --- | --- | --- | --- | --- | --- | --- | --- | --- | --- | --- |
| O=c1ccc2ccc(/C=N/O)cc2o1 | 98.5 | 77.7 | 12.8 | 0.29 | 37.2 | 100 | 70.7 | 100 | 28.5 | 50.8 | 7.1 | 98.8 | 37.4% | 9.7 | 43.4 | 58.6 | 20.3 | 98.7 | 4.8 | 3.52 | inhibition [11]: No action |
| O=c1ccc2ccc(/C=N/Nc3ccccc3)cc2o1 | 99.9 | 64.5 | 79.1 | 36.2 | 77.4 | 96.8 |  | 88.7 | 30.6 | 65.5 | 64.4 | 71.2 |  | 78.7 | 15.4 | 35.2 | 31.4 | 80.1 | 56.2 | 48.9 | inhibition [22]: 5.9%; inhibition [23]: No action; inhibition [24]: No action |
| COc1ccc2c(c1)c(CC(=O)O)c(C)n2C(=O)c1ccc(Cl)cc1 [INDOMETHACIN] |  |  |  |  |  |  |  |  |  |  |  |  |  |  |  | 47 |  |  |  |  |  |
| O=c1ccc2ccc(/C=N/c3ccccc3)cc2o1 | 97.6 | 95.9 | 11.6 | 12.9 | 54.3 | 95.4 | 35.3 | 83.4 | 10 | 89.6 | 10.6 | 100 | 90.5% | 14.3 | 72.2 | 42.5 | 22.6 | 73.9 | 10 | 13.5 | inhibition [22]: 26.1% |
| CN/N=C/c1ccc2ccc(=O)oc2c1 | 97.6 | 100 | 87.3 | 69.7 | 70.8 | 93.3 |  | 83.4 | 10 |  | 86.7 | 100 |  | 92.4 | 97.3 | 54.7 | 22.6 | 93.9 | 80.7 | 84.8 | inhibition [22]: 6.9%; inhibition [23]: No action; Competition [25]: No results; inhibition [24]: No action |
| O=c1ccc2ccccc2o1 [COUMARIN] | 98 | 95.9 | 6.7 | 4.9 |  |  | 12.7 | 63.9 | 28.5 | 78 |  | 15.1 | No action | 5.8 |  | 30.2 | 5 | 89.3 | 21 |  |  |
| O=c1ccc2ccc(/C=N/N=C/c3ccc4ccc(=O)oc4c3)cc2o1 | 65.4 | 100 | 67.5 | 7.04 | 8.6 | 100 | 99.9 | 65.2 | 29.9 | 45.3 | 8.4 | 10.2 | 24.5% | 64.4 | 44.5 | 54 | 9.4 | 100 | 9.9 | 6.3 | inhibition [22]: 2.3% |
| O=Cc1ccc2ccc(=O)oc2c1 | 99.1 | 100 | 12.8 | 1.47 | 8.6 | 98.9 | 83.4 | 98.9 | 22.7 | 35.2 | 7.1 | 89.7 | 32.8% | 16.2 | 33.9 | 29.3 | 12.6 | 96.6 | 3.5 | 2.49 | inhibition [11]: No action |
| CC(O)Cc1ccc2ccc(=O)oc2c1 (stereo not given) | 99.4 | 95.4 | 25.6 | 14.5 |  | 92.3 | 41.1 | 100 | 31.3 | 81.8 | 16.8 | 100 |  | 22.9 | 80.7 | 18 | 29.3 | 63.1 | 13.3 | 18.4 | inhibition [22]: 7.5%; inhibition [23]: No action; inhibition [26]: No action |
| Cc1ccc2ccc(=O)oc2c1 | 88.7 | 100 | 3.5 | 0.29 | 73.5 | 95.9 | 90.4 | 97.7 | 16.4 | 43.8 | 5.4 | 88.9 | 48.1% | 2.05 | 30.2 | 55.1 | 13.6 | 97.4 | 2.5 | 1.61 | inhibition [11]: No action |
| CO/N=C/c1ccc2ccc(=O)oc2c1 | 99.9 | 100 | 11.9 | 12.7 |  | 94.1 | 100 | 100 | 16.6 | 90.2 | 11.6 | 100 |  | 13.9 | 85.6 | 31.1 | 25.5 | 56.9 | 9.8 | 14.5 | inhibition [22]: 21.9%; inhibition [23]: No action; inhibition [26]: No action |
